Earlier results, collected in US20060182790A1, “Dermal medicaments application enhancer” (priority 2005, published 2006).

Cl.NCC(=O)CCC(=O)O [ALA HCl, 5-amino-4-oxopentanoic acid hydrochloride]
solubility in chloroform (chloroform): practically insoluble
solubility in ethanol (ethanol): slightly soluble
solubility in hexane (hexane): practically insoluble
solubility in methanol (methanol): slightly soluble
solubility in mineral oil (mineral oil): practically insoluble
solubility in water (water): very soluble
